One assay addresses T1, MLK-3 (Homo sapiens, UniProt Q16584).
T1 construct: A full length cDNA of human MLK-3, MLK-2, or mouse DLK; expressed in transfected cells; host or cells: Cos7
Kind of assay: JNK activity (immunoprecipitation/kinase assay) in Cos7 cells overexpressing MLK-3 and HA-JNK1. The conditions noted are these: COS-7, 500 nM for 2 hr; replicate values in one cell; read-out: Cos-7 Cells MLK-3 % JNK Inhib. @ 500nM. It is filed as cell-based. As for the experimental part: Cos7 cells were plated at 80% confluency and transfected with 2 ug each of cDNA constructs using lipofectamine as recommended by the provider (Gibco BRL, Gaithersburg, MD). A full length cDNA of human MLK-3, MLK-2, or mouse DLK or a partial human MLK-1 as described above, and a full length Hemagluttinin A-tagged human JNK1, kindly provided by J. Silvio Gutkind (NIH, Bethesda, MD), were subcloned into the pcDNA3 vector (Invitrogen, San Diego, CA). […] JNK activity from the lysate was assayed by an immunoprecipitation/kinase assay as described below.
Lysate from Cos 7 cells was measured for protein concentration using the Micro BCA kit from Pierce (Rockford, IL) and equal amounts of protein were immunoprecipitated with the HA antibody for 1 hr at 4°C. Immunoprecipitates were pelleted by centrifugation in a microfuge centrifuge for 20 sec, resuspended in Triton buffer, washed by centrifugation 2 more times, followed by a final wash in Kinase buffer (20 mM Hepes pH 7.4,20 mM MgCl2, 2 mM dithiothreitol, 0.1 mM sodium vanadate). The immunoprecipitate was resuspended in kinase buffer containing 1 µM ATP and 5 µCi [γ-^32P]ATP and substrate (1 µg/sample of AP-1 ) and incubated for 15 min at 30°C. […] Samples were heated to 80°C for 5 min and loaded onto 10% SDS-polyacrylamide gels. Proteins were separated by electrophoresis. The gel was dried and quantitation of radioactivity in the AP-1 substrate was performed on a Molecular Dynamics Phosphorimager (Sunnyvale, Ca.).
To determine whether inhibition of the JNK pathway regulated by these kinases correlated with neurotrophic compounds, we evaluated the effect of compounds on JNK activity in Cos7 cells overexpressing HA-JNK and MLK3. After a 48 hr transfection period, the cells were incubated with compounds at 500 nM for 2hr followed by cellular lysis. Lysate was immunoprecipitated and kinase activity measured as previously described. […]

The target in a further assay is T2, DLK (Mus musculus, UniProt Q60700).
T2 construct: A full length cDNA of human MLK-3, MLK-2, or mouse DLK; expressed in transfected cells; host or cells: Cos7
T2 sequence (Q60700 1-888): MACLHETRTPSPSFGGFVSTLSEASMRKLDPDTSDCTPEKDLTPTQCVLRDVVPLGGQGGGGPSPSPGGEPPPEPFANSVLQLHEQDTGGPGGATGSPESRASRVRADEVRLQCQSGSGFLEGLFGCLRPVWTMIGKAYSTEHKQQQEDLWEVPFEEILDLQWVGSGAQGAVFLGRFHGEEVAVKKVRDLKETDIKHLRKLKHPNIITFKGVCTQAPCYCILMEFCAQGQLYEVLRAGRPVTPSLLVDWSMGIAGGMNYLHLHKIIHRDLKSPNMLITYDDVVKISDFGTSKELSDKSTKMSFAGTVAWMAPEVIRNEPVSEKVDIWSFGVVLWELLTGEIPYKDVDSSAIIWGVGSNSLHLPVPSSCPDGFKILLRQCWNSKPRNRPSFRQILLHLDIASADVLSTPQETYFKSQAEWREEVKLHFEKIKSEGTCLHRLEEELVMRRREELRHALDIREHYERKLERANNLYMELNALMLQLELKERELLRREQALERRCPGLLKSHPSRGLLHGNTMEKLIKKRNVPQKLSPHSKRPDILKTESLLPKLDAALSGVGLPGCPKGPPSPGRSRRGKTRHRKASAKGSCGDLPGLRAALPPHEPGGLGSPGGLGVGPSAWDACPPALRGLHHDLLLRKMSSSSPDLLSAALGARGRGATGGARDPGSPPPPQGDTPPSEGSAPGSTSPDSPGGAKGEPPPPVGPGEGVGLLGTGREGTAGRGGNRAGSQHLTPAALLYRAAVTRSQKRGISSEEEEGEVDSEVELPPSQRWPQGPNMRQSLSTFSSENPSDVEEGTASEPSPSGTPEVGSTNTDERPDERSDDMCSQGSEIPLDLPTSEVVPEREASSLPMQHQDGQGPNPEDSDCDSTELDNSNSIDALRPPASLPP
Kind of assay: JNK activity (immunoprecipitation/kinase assay) in Cos7 cells overexpressing DLK and HA-JNK1. It is filed as cell-based. The conditions noted are these: COS-7, 500 nM for 2 hr; replicate values in one cell; read-out: Cos-7 Cells DLK % JNK Inhib. @ 500nM. As for the experimental part:
Cos7 cells were plated at 80% confluency and transfected with 2 ug each of cDNA constructs using lipofectamine as recommended by the provider (Gibco BRL, Gaithersburg, MD). A full length cDNA of human MLK-3, MLK-2, or mouse DLK or a partial human MLK-1 as described above, and a full length Hemagluttinin A-tagged human JNK1, kindly provided by J. Silvio Gutkind (NIH, Bethesda, MD), were subcloned into the pcDNA3 vector (Invitrogen, San Diego, CA). After a 48 hr transfection, the cells were treated with 0.025% DMSO or 500 nM of the indicated compounds for 2 hr followed by lysis in 0.4 ml Triton buffer (1% Triton X-100, 50 mM sodium chloride, 10 mM Tris (pH 7.6), 0.1 % bovine serum albumin, 30 uM sodium pyrophosphate, 50 mM sodium fluoride, 20 ug/ml aprotinin, 1 mM phenylmethylsulfonylfluoride, 1 mM sodium vanadate). JNK activity from the lysate was assayed by an immunoprecipitation/kinase assay as described below.
Lysate from Cos 7 cells was measured for protein concentration using the Micro BCA kit from Pierce (Rockford, IL) and equal amounts of protein were immunoprecipitated with the HA antibody for 1 hr at 4°C. […] The gel was dried and quantitation of radioactivity in the AP-1 substrate was performed on a Molecular Dynamics Phosphorimager (Sunnyvale, Ca.). […]

T1 sequence (Q16584 whole entry): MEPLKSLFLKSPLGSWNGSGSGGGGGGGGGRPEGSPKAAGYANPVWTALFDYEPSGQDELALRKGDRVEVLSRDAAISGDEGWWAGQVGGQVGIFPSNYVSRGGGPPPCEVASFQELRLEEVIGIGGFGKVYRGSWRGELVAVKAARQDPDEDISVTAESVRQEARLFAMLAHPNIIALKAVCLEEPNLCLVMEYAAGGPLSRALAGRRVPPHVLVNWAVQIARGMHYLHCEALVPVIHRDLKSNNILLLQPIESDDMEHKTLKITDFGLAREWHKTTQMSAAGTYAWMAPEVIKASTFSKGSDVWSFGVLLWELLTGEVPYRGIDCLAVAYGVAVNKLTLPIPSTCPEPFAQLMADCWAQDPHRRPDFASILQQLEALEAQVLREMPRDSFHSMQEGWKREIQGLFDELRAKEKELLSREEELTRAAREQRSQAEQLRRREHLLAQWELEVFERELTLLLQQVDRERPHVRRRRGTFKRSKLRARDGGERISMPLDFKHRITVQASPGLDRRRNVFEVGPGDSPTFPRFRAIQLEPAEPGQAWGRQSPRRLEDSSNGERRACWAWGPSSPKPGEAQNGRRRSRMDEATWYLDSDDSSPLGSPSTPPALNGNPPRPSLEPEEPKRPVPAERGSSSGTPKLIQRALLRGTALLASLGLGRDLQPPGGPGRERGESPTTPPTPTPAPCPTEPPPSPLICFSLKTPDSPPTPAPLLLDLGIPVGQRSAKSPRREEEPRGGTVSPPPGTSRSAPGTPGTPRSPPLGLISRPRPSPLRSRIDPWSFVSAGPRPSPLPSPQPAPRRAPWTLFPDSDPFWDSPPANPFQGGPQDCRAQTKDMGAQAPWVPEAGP

Consider `COC(=O)C1(O)CC2OC1(C)n1c3ccccc3c3c4c(c5c6ccccc6n2c5c31)C(=O)NC4` (centres unmarked) [III^1], for which the results for the inhibition at 0.5 µM on MLK-3 and at DLK were 99% and 63%, respectively.

These data come from EP1105728B1, “MODULATING MULTIPLE LINEAGE KINASE PROTEINS” (CEPHALON, INC., priority 1998, dated 2000).
